Measured values reported in ChEMBL document CHEMBL1201862, “PubChem BioAssay data set” (2004).
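48-hour exposure; five concentrations; linearly interpolated endpoints. Here, GI50 denotes the concentration required for 50% inhibition of growth.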 Calls of active or inactive are those of the source. No stated cut-off is given here; in the data, active = GI50 up to about 1.1 µM and inactive = higher.

Assays:
Assay in all cases: NCI tumour cell line growth inhibition, 48 h
DLD-1 = system: DLD-1
HOP-18 = system: HOP-18
KM-20L2 = system: KM-20L2
LXFL 529 = system: LXFL 529
M19-MEL = system: M19-MEL
RXF 631 = system: RXF 631
SNB-78 = system: SNB-78
XF498 = system: XF498
BT-549 = system: BT-549

## Cc1cccc(C2=NC(C)(C)C(C)(C)N=C2c2cccc(C)n2)n1
DLD-1
  GI50: 98.6 µM (inactive)
HOP-18
  GI50: > 100 µM (inactive)
KM-20L2
  GI50: 84.1 µM (inactive)
LXFL 529
  GI50: 70.5 µM (inactive)
M19-MEL
  GI50: > 100 µM (inactive)
RXF 631
  GI50: > 100 µM (inactive)
SNB-78
  GI50: > 100 µM (inactive)
XF498
  GI50: > 100 µM (inactive)

## O=C1OCC2C1C1c3ccccc3C(O)c3ccccc3C21 (configuration not stated)
DLD-1
  GI50: > 100 µM (inactive)
HOP-18
  GI50: > 100 µM (inactive)
KM-20L2
  GI50: > 100 µM (inactive)
LXFL 529
  GI50: > 100 µM (inactive)
M19-MEL
  GI50: > 100 µM (inactive)
RXF 631
  GI50: > 100 µM (inactive)
SNB-78
  GI50: > 100 µM (inactive)
XF498
  GI50: > 100 µM (inactive)

## CCOC(=O)C1N(S(=O)(=O)c2ccc(C)cc2)CCC12C(c1ccc(OC)c(OC)c1)=Nc1ccccc12 (configuration not stated)
DLD-1
  GI50: > 100 µM (inactive)
HOP-18
  GI50: > 100 µM (inactive)
KM-20L2
  GI50: > 100 µM (inactive)
LXFL 529
  GI50: > 100 µM (inactive)
M19-MEL
  GI50: > 100 µM (inactive)
RXF 631
  GI50: > 100 µM (inactive)
SNB-78
  GI50: > 100 µM (inactive)
XF498
  GI50: 30.1 µM (inactive)

## Cc1ccc2oc(=O)c3c(O)c4cccc(OC5OC(C)C6O[C@@H](c7ccccc7)OC6C5OC5OC(C)C(O)C(O)C5O)c4c4oc(=O)c1c2c34 (some centres not stated)
DLD-1
  GI50: 0.156 µM (active)
HOP-18
  GI50: 0.466 µM (active)
KM-20L2
  GI50: 0.0354 µM (active)
LXFL 529
  GI50: 0.0594 µM (active)
M19-MEL
  GI50: 0.11 µM (active)
RXF 631
  GI50: 0.0456 µM (active)
SNB-78
  GI50: 0.708 µM (active)
XF498
  GI50: 0.0486 µM (active)

## CN(C)CC1CC/C(=C\c2ccc3c(c2)OCO3)C1=O (configuration not stated)
BT-549
  GI50: 11.2 µM (inactive)
DLD-1
  GI50: 6.84 µM (inactive)
HOP-18
  GI50: 15.9 µM (inactive)
KM-20L2
  GI50: 19.7 µM (inactive)
LXFL 529
  GI50: 12.6 µM (inactive)
M19-MEL
  GI50: 16.4 µM (inactive)
RXF 631
  GI50: 12.7 µM (inactive)
SNB-78
  GI50: 21.8 µM (inactive)
XF498
  GI50: 18.3 µM (inactive)

## CCCCCCCCCCCCCP(=O)(O)O
DLD-1
  GI50: > 100 µM (inactive)
HOP-18
  GI50: > 100 µM (inactive)
KM-20L2
  GI50: > 100 µM (inactive)
LXFL 529
  GI50: > 100 µM (inactive)
M19-MEL
  GI50: > 100 µM (inactive)
RXF 631
  GI50: > 100 µM (inactive)
SNB-78
  GI50: > 100 µM (inactive)
XF498
  GI50: > 100 µM (inactive)

## N#CCCN(CCC#N)c1ccc(C(Sc2ccccc2)C(NC(=O)c2cc([N+](=O)[O-])ccc2Cl)C(=O)Sc2ccccc2)cc1 (configuration not stated)
DLD-1
  GI50: 2.52 µM (inactive)
HOP-18
  GI50: 24 µM (inactive)
KM-20L2
  GI50: 2.57 µM (inactive)
LXFL 529
  GI50: 3.69 µM (inactive)
M19-MEL
  GI50: 5.36 µM (inactive)
RXF 631
  GI50: 2.03 µM (inactive)
SNB-78
  GI50: 4.66 µM (inactive)
XF498
  GI50: 8.67 µM (inactive)
